The results in this text go back to BindingDB's records for doi:10.1016/j.bioorg.2009.09.001 (University of Ljubljana, 2009).

Usually IC50 stands for the concentration that inhibits the measured activity by half. Low readings indicate higher potency, high ones lower potency.

Assay in all cases: Enzymatic Assay
What all share (conditions): pH 8; 37 °C

For experiment [1], the target named is T1, UDP-N-acetylmuramoyl-tripeptide--D-alanyl-D-alanine ligase (Escherichia coli (strain K12), UniProt P11880).
T1 sequence (P11880 whole entry): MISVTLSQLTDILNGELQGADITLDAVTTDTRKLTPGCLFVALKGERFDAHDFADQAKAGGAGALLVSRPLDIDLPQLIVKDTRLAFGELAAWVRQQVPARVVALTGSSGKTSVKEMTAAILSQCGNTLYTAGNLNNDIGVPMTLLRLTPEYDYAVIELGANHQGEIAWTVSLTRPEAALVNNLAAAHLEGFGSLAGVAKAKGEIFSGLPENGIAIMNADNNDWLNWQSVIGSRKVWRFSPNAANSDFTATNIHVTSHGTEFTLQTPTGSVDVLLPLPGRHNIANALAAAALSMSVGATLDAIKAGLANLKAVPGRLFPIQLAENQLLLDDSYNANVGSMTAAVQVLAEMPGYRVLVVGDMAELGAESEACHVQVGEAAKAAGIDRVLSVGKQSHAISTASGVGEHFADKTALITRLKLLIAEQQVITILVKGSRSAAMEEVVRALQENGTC
The protocol:
(§1) Compounds were tested for their inhibition of the addition of L-Ala, D-Glu, L-Lys or D-Ala-D-Ala to nucleotide precursors catalyzed by MurC from Escherichia coli, MurD from E. coli, MurE from Staphylococcus aureus, and MurF from E coli. The detection of the orthophosphate generated during the reaction was based on the colorimetric Malachite green method.

Experiment [2] concerns the target T2, UDP-N-acetylmuramoyl-L-alanyl-D-glutamate--L-lysine ligase (Staphylococcus aureus (strain NCTC 8325 / PS 47), UniProt Q2FZP6).
T2 sequence (Q2FZP6 whole entry): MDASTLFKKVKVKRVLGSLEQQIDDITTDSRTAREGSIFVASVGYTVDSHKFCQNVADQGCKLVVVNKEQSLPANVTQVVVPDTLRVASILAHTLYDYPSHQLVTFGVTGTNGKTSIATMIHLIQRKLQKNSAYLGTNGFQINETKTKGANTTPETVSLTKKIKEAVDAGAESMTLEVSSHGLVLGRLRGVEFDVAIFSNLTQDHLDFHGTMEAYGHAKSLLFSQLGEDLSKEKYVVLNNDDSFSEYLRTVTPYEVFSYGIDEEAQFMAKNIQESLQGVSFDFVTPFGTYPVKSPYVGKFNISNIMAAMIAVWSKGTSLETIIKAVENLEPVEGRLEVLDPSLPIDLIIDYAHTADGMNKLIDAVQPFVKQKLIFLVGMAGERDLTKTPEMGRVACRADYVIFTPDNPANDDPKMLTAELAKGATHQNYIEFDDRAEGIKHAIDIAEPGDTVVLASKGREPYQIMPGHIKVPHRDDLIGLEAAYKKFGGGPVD
As to the method: as §1

The target in experiment [3] is UDP-N-acetylmuramate--L-alanine ligase (Escherichia coli (strain K12), UniProt P17952). The protocol:
as §1

Chain of UDP-N-acetylmuramate--L-alanine ligase (P17952 whole entry): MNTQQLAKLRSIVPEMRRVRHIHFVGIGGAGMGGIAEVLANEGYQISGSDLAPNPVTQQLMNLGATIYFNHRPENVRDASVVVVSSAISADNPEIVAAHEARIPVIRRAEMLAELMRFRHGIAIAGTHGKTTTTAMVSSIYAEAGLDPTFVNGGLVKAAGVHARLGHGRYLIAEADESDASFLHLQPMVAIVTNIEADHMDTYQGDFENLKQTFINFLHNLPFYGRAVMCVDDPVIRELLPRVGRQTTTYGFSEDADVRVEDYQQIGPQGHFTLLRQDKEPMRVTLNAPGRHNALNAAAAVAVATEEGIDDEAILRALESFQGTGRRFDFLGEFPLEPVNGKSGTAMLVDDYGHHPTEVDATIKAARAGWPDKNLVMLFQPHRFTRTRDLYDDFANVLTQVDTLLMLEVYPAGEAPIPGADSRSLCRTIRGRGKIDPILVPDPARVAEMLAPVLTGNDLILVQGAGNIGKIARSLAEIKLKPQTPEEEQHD

Turning to `O=P(O)(O)OC(CNS(=O)(=O)c1ccc(F)cc1)CN1CCOCC1` (stereo not drawn) [HEA derivative, 7b], the 50% inhibitory concentration (IC50) was found to be 270 µM in experiment [1], 120 µM in experiment [2] and 790 µM in experiment [3].
In the case of `COc1ccc(S(=O)(=O)NCC(CN2CCOCC2)OP(=O)(O)O)cc1` (stereo not drawn), the IC50 in experiment [1] came out at 530 µM; in experiment [2], 6 µM; in experiment [3] it was 490 µM.
For `O=P(O)(O)OC(CNS(=O)(=O)c1cccc(C(F)(F)F)c1)CN1CCOCC1` (stereo not drawn) [HEA derivative, 7d] the same measures were 150 µM, 160 µM and 530 µM.
`Cc1ccc(S(=O)(=O)NCC(CN2CCOCC2)OP(=O)(O)O)cc1` (stereo not drawn) [HEA derivative, 7e]: the half-maximal inhibitory concentration (IC50) in experiment [1] was 560 µM; in experiment [2], 120 µM; in experiment [3], 540 µM.
As for `CCc1ccc(S(=O)(=O)NCC(CN2CCOCC2)OP(=O)(O)O)cc1` (stereo not drawn) [HEA derivative, 7f], the values for the IC50 in experiment [1], in experiment [2] and in experiment [3] were 360 µM, 61 µM and 760 µM, respectively.
Consider `O=P(O)(O)OC(CNS(=O)(=O)c1ccc(C(F)(F)F)cc1)CN1CCOCC1` (stereo not drawn) [MurC/D/E/F inhibitor (compound 68)], for which the half-inhibitory concentration (IC50) in experiment [1] worked out at 240 µM; in experiment [2] it was 57 µM; in experiment [3], 200 µM.
